Here are results for 40 molecules from patent publication US9006440B2, “Furopyridine derivatives” (Merck Patent GmbH, priority 2010, dated 2015).

The target in experiment [1] is T1, KDR (Homo sapiens, UniProt P35968).
T1 construct: purchased BPS Bioscience, CA, USA
The experiment can be described thus: KDR enzymatic assay (Caliper LifeSciences technology). Type of experiment: biochemical. As to the method:
(§1) The assays described here are performed on the Caliper Life Sciences LC3000 system This technology provides data on enzyme activity via measurement of the relative amounts of phosphorylated or unphosphorylated fluorescently labelled substrate peptide at the end of an enzymatic reaction. These different states of peptide are resolved by applying a potential difference across the sample. The presence of the charged phosphate group on the product (as opposed to the substrate) causes a different peptide mobility between the two peptides. This is visualized by excitation of the fluorescent label on the substrate and product peptides and represented as peaks within the analysis software.
(§2) In order to measure inhibitor activity of kinase inhibitors on this technology, a TTP Mosquito liquid handling instrument is used to place 0.25 ul of the appropriate concentration of inhibitor in 100% DMSO (for a dose response curve calculation) into each well of a 384-well plate. To this reaction components are added to a final volume of 25 ul. The table below indicates the sequences and concentrations for the assays described in this report. Standard components are 1 mM DTT (Sigma, D0632), 1 mM MgCl2 (Sigma, M1028), 100 mM HEPES pH 7.5 (Calbiochem, 391338), 0.015% Brij-35 (Sigma, B4184).
(§3) The reaction is incubated for 90 min at 25 C, and then stopped by the addition of 70 ul of Stop buffer (100 mM HEPES pH 7.5, 0.015% Brij-35, 10 mM EDTA (Sigma, E7889)).
(§4) The plate is read on a Caliper LC 3000 in an Off-Chip mobility shift assay format, on a 12-sipper chip. Unphosphorylated substrate and phosphorylated product peptide resolve as separate peaks allowing direct measurement of percentage of conversion of substrate to product. The percent conversion can be plotted against concentration of inhibitor to produce a sigmoidal dose response curve, from which an IC50 can be calculated using GeneData Condoseo or a similar product.

Experiment [2] concerns the target T2, Syk (Homo sapiens, UniProt P43405).
T2 construct: purchased BPS Bioscience, CA, USA
The experiment can be described thus: Syk enzyme assay (SYK flash plate assay / Caliper mobility shift). Type of experiment: biochemical. As for the experimental part:
The kinase assay is performed either as 384-well Flashplate assay (for e.g. Topcount measurement) or as 384-well Image-Flashplate assay (for LEADseeker measurement).
2.5 nM SYK, 400 nM Biotin-Aha-Aha-KEDPDYEWPSAKK
and 10 μM ATP (spiked with 0.3 μCi 33P-ATP/well) are incubated in a total volume of 50 μl (60 mM Hepes, 10 mM MgCl2, 1.2 mM Dithiothreitol, 0.02% Brij35, 0.1% BSA, pH 7.5) with or without test compound for 1 hours at 30° C. The reaction is stopped with 25 μl 200 mM EDTA. After 30 Min at 30° C. the liquid is removed and each well washed thrice with 100 μl 0.9% sodium chloride solution. Non-specific reaction is determined in presence of 0.1 μM Staurosporine. Radioactivity is measured with Topcount (when using Flashplates) or with LEADseeker (when using Image-Flashplates) respectively. Results (e.g. IC50-values) are calculated with program tools provided by the IT-department (e.g. Symyx Assay Explorer, Genedata Screener). Enzymatic Assays Using the Caliper LifeSciences Technology
as §1, §2, §3, §4

T1 sequence (P35968 20-1356): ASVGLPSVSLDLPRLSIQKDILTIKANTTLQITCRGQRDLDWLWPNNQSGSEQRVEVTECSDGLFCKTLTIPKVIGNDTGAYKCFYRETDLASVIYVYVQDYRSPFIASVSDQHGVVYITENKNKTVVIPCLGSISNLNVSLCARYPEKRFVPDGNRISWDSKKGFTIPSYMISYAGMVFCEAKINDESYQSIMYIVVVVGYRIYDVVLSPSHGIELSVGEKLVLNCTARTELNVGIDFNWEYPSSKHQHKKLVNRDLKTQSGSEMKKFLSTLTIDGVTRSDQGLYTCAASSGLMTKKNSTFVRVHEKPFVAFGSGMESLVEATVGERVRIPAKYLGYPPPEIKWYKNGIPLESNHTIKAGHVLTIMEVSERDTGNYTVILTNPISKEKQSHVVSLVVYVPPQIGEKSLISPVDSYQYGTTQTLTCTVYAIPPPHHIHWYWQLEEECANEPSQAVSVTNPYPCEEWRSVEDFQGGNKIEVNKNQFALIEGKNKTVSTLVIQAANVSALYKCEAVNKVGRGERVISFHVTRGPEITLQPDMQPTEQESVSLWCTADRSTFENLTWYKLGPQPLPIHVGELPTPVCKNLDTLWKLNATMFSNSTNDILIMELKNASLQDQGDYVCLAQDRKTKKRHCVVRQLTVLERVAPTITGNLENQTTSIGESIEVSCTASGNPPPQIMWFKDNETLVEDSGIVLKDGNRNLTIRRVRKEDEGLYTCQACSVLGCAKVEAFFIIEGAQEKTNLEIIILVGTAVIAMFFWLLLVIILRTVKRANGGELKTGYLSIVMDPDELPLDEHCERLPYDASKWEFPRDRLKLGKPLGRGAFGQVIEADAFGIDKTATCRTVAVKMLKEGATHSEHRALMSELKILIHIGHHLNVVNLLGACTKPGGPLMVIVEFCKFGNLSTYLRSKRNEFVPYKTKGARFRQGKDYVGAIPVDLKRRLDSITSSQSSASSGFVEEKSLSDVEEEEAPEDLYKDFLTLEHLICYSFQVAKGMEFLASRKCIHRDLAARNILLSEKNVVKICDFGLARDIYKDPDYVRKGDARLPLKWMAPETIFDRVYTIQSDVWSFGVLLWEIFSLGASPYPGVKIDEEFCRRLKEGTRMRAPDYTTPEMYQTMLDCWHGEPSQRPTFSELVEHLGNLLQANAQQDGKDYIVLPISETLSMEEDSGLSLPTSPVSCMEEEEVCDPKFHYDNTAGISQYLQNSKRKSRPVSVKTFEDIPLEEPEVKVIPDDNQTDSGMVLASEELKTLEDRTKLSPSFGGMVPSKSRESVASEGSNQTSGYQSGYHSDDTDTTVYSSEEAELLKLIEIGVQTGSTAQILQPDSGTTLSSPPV

For `COc1ccc(-c2ccnc3cc(-c4cc(OC)c(OC)c(OC)c4)oc23)c(OC)c1` [Compound A28, 7-(2,4-Dimethoxy-phenyl)-2-(3,4,5-trimethoxy-phenyl)-furo[3,2-b]pyridine], the IC50 in experiment [1] was 0.3 to 3 µM; in experiment [2] it was below 0.3 µM.

In the case of `CNC(=O)c1ccc(-c2ccnc3cc(-c4cc(OC)c(OC)c(OC)c4)oc23)cc1` [Compound A13, N-Methyl-4-[2-(3,4,5-trimethoxy-phenyl)-furo[3,2-b]pyridin-7-yl]-benzamide], the concentration for half-maximal inhibition (IC50) in experiment [1] is 0.3 to 3 µM; in experiment [2] it was below 0.3 µM.

On to `O=C(Nc1cccc(-c2cc3nccc(-c4ccccc4)c3o2)c1)[C@@H]1CCCN1` [Compound C31], for which the IC50 in experiment [1] and in experiment [2] was 0.3 to 3 µM in each case.

As for `Cn1cc(-c2ccnc3cc(-c4ccc(S(C)(=O)=O)cc4)oc23)cn1` [Compound C34], the values for the IC50 in experiment [1] and in experiment [2] were 3 to 50 µM and 0.3 to 3 µM, respectively.

As for `Cn1cc(-c2ccnc3cc(-c4ccc5cnn(C)c5c4)oc23)cn1` [Compound C98], the IC50 in experiment [1] was 3 to 50 µM; in experiment [2] it was below 0.3 µM.

`COc1cc(-c2ccnc3cc(-c4cc(OC)c(OC)c(OC)c4)oc23)ccn1` [Compound A29, 7-(2-Methoxy-pyridin-4-yl)-2-(3,4,5-trimethoxy-phenyl)-furo[3,2-b]pyridine]: the results for the half-maximal inhibitory concentration (IC50) in experiment [1] and in experiment [2] were 0.3 to 3 µM and below 0.3 µM, respectively.

In the case of `Cn1cc(-c2ccnc3cc(-c4ccc(N5CCOCC5)nc4)oc23)cn1` [Compound C24], the IC50 in experiment [1] and in experiment [2] was 0.3 to 3 µM throughout.

On to `Cn1cc(-c2ccnc3cc(-c4ccc5[nH]ccc5c4)oc23)cn1` [Compound C18], for which the IC50 in experiment [1] and in experiment [2] was 0.3 to 3 µM in each case.

Consider `Cn1cc(-c2ccnc3cc(-c4ccc(CO)cc4)oc23)cn1` [Compound C59], for which the IC50 in experiment [1] and in experiment [2] was 0.3 to 3 µM each time.

Turning to `COc1cc(-c2cc3nccc(Nc4ccc5c(c4)NC(=O)C(F)(F)O5)c3o2)cc(OC)c1OC` [Compound B10, 2,2-Difluoro-6-[2-(3,4,5-trimethoxy-phenyl)-furo[3,2-b]pyridin-7-ylamino]-4H-benzo[1,4]oxazin-3-one], the IC50 in experiment [1] was below 0.3 µM; in experiment [2], 0.3 to 3 µM.

Take `CC(C)c1cccc(-c2cc3nccc(-c4cnn(C)c4)c3o2)c1` [Compound C45]: the IC50 in experiment [1] was 3 to 50 µM; in experiment [2], 0.3 to 3 µM.

In the case of `COC(=O)c1cccc(-c2cc3nccc(-c4ccccc4)c3o2)c1` [Compound A19, 3-(7-Phenyl-furo[3,2-b]pyridin-2-yl)-benzoic acid methyl ester], the IC50 in experiment [1] and in experiment [2] was 3 to 50 µM in each case.

Regarding `COc1cc(-c2cc3nccc(-c4ccc(CN)cc4)c3o2)cc(OC)c1OC` [Compound A53, 4-[2-(3,4,5-Trimethoxy-phenyl)-furo[3,2-b]pyridin-7-yl]-benzylamine], the IC50 in experiment [1] is 0.3 to 3 µM; in experiment [2], below 0.3 µM.

As to `COc1cccc(-c2cc3nccc(-c4cccc(OC)c4)c3o2)c1` [Compound B43, 2,7-Bis-(3-methoxy-phenyl)-furo[3,2-b]pyridine], the concentration for half-maximal inhibition (IC50) in experiment [1] and in experiment [2] was 3 to 50 µM throughout.

Take `COc1cc(-c2cc3nccc(-c4cccc(S(C)(=O)=O)c4)c3o2)cc(OC)c1OC` [Compound C110]: the results for the IC50 in experiment [1] and in experiment [2] were 0.3 to 3 µM and below 0.3 µM, respectively.

Regarding `COc1cc(-c2cc3nccc(-c4ccc(C)cc4C)c3o2)cc(OC)c1OC` [Compound A32, 7-(2,4-Dimethyl-phenyl)-2-(3,4,5-trimethoxy-phenyl)-furo[3,2-b]pyridine], in experiment [2], the IC50 was 0.3 to 3 µM.

Consider `Cc1cccc(-c2cc3nccc(-c4cccc(C)c4)c3o2)c1` [Compound B34, 2,7-Di-m-tolyl-furo[3,2-b]pyridine], for which, in experiment [2], the 50% inhibitory concentration (IC50) was 3 to 50 µM.

In the case of `COc1cc(-c2cc3nccc(-c4cccc(C(=O)NCc5cc[nH]n5)c4)c3o2)cc(OC)c1OC` [Compound C10], the IC50 in experiment [2] was below 0.3 µM.

For the molecule `c1ccc(-c2ccnc3cc(-c4ccc(N5CCOCC5)nc4)oc23)cc1` [Compound C25], in experiment [2], the IC50 was in the range of 0.3 to 3 µM.

`COc1cc(-c2cc3nccc(-c4ccc5[nH]c(=O)[nH]c5c4)c3o2)cc(OC)c1OC` [Compound C56]: the IC50 in experiment [2] was below 0.3 µM.

As to `COc1cc(-c2cc3nccc(-c4cnc(F)cc4C)c3o2)cc(OC)c1OC` [Compound C23], in experiment [2], the IC50 was below 0.3 µM.

`Cn1cc(-c2ccnc3cc(-c4ccc([S+](C)[O-])cc4)oc23)cn1` (stereo not shown) [Compound C54]: the IC50 in experiment [2] is 0.3 to 3 µM.

Regarding `COc1cccc(-c2cc3nccc(-c4ccccc4)c3o2)c1` [Compound C15], in experiment [2], the IC50 was in the range of 0.3 to 3 µM.

On to `COc1cc(-c2cc3nccc(-c4ccc5[nH]c(-c6cn[nH]c6)nc5c4)c3o2)cc(OC)c1OC` [Compound C90], for which the IC50 in experiment [2] is below 0.3 µM.

Take `Cn1cc(-c2ccnc3cc(-c4ccc5cn[nH]c5c4)oc23)cn1` [Compound C133]: in experiment [2], the IC50 is below 0.3 µM.

On to `CNC(=O)COc1cccc(-c2ccnc3cc(-c4cc(OC)c(OC)c(OC)c4)oc23)c1` [Compound C8], for which the IC50 in experiment [2] was below 0.3 µM.

For `Fc1cc(F)cc(-c2cc3nccc(-c4cc(F)cc(F)c4)c3o2)c1` [Compound B1, 2,7-Bis-(3,5-difluoro-phenyl)-furo[3,2-b]pyridine], in experiment [2], the IC50 lay in the range of 3 to 50 µM.

As to `COc1ccc(-c2cc3nccc(-c4ccc(OC)cc4)c3o2)cc1` [Compound B35, 2,7-Bis-(4-methoxy-phenyl)-furo[3,2-b]pyridine], the IC50 in experiment [2] was in the range of 3 to 50 µM.

Turning to `COC(=O)c1cccc(-c2ccnc3cc(-c4cc(OC)c(OC)c(OC)c4)oc23)c1` [Compound A11, 3-[2-(3,4,5-Trimethoxy-phenyl)-furo[3,2-b]pyridin-7-yl]-benzoic acid methyl ester], in experiment [2], the IC50 lay within 0.3 to 3 µM.

As to `CN(c1ncccc1CNc1ccnc2cc(-c3ccccc3)oc12)S(C)(=O)=O` [Compound B20, N-Methyl-N-{3-[(2-phenyl-furo[3,2-b]pyridin-7-ylamino)-methyl]-pyridin-2-yl}-methanesulfonamide], the IC50 in experiment [2] lay in the range of 3 to 50 µM.

With `COc1cc(-c2cc3nccc(NCc4cccnc4N(C)S(C)(=O)=O)c3o2)cc(OC)c1OC` [Compound B7, N-Methyl-N-(3-{[2-(3,4,5-trimethoxy-phenyl)-furo[3,2-b]pyridin-7-ylamino]-methyl}-pyridin-2-yl)-methanesulfonamide], the IC50 in experiment [2] was 3 to 50 µM.

`Cn1cc(-c2ccnc3cc(-c4cccc(OCc5ccccc5)c4)oc23)cn1` [Compound C20]: the IC50 in experiment [2] lay in the range of 3 to 50 µM.

With `COc1cc(-c2cc3nccc(-c4cccc5ncccc45)c3o2)cc(OC)c1OC` [Compound A18, 5-[2-(3,4,5-Trimethoxy-phenyl)-furo[3,2-b]pyridin-7-yl]-quinoline], the 50% inhibitory concentration (IC50) in experiment [2] lay in the range of 0.3 to 3 µM.

Consider `c1cc(-c2ccc3c(c2)OCCO3)c2oc(-c3ccc4c(c3)OCCO4)cc2n1` [Compound B37, 2,7-Bis-(2,3-dihydro-benzo[1,4]dioxin-6-yl)-furo[3,2-b]pyridine], for which the IC50 in experiment [2] is 3 to 50 µM.

With `CNC(=O)c1cccc(-c2ccnc3cc(-c4cc(OC)c(OC)c(OC)c4)oc23)c1` [Compound A7, N-Methyl-3-[2-(3,4,5-trimethoxy-phenyl)-furo[3,2-b]pyridin-7-yl]-benzamide], the IC50 in experiment [2] is below 0.3 µM.

`Cc1cc(C(=O)NC(C)(C)CO)cc(-c2cc3nccc(-c4ccccc4)c3o2)c1` [Compound A43, N-(2-Hydroxy-1,1-dimethyl-ethyl)-3-methyl-5-(7-phenyl-furo[3,2-b]pyridin-2-yl)-benzamide]: the IC50 in experiment [2] was below 0.3 µM.

On to `CC(=O)c1ccc(-c2cc3nccc(-c4cnn(C)c4)c3o2)cc1` [Compound C95], for which the IC50 in experiment [2] lay in the range of 0.3 to 3 µM.

Turning to `COc1cc(-c2cc3nccc(-c4cccc5ccccc45)c3o2)cc(OC)c1OC` [Compound A22, 7-Naphthalene-1-yl-2-(3,4,5-trimethoxy-phenyl)-furo[3,2-b]pyridine], in experiment [2], the IC50 lay in the range of 0.3 to 3 µM.

Regarding `COc1cc(-c2cc3nccc(-c4ccccc4O)c3o2)cc(OC)c1OC` [Compound C85], in experiment [2], the IC50 is below 0.3 µM.

Regarding `CCOc1ccn(-c2ccc(F)cc2)c(=O)c1C(=O)Nc1ccc(Oc2ccnc3cc(-c4ccccc4)oc23)cc1` [Compound B14, 4-Ethoxy-1-(4-fluoro-phenyl)-2-oxo-1,2-dihydro-pyridine-3-carboxylic acid [4-(2-phenyl-furo[3,2-b]pyridin-7-yloxy)-phenyl]-amide], in experiment [2], the IC50 fell in the range of 0.3 to 3 µM.
